Experiments:
[1] = Phase 2 trial, development terminated June 2013; cited from earlier work
[2] = Limited safety evaluation in the beagle dog (observations, serum biochemistry); type: in vivo; settings: one dog, 0.63 mg/kg single dose, 2 h post dosing
Protocol: (§1) Test compounds were tested to evaluate the effect on the beta-amyloid profile in cerebrospinal fluid (CSF) of dogs after a single dose, in combination with pharmacokinetic (PK) follow up and limited safety evaluation. For each of compound 4b, 3c, 7d, or 14, four beagle dogs (2 males, 2 females) were dosed with vehicle (1 ml/kg of an aqueous solution of 20% cyclodextrin) and 12, 8, 4 and 4 beagle dogs (2 males and 2 females per dosage group), were dosed with test compounds as follows:
CSF was taken in conscious animals directly from the lateral ventricle via a cannula which was screwed in the skull and covered with subcutaneous tissue and skin, before and at 4, 8, 25 and 49 hours after dosing. Eight hours after dosing the animals got access to their regular meal for 30 minutes. […] The CSF samples were used for measurement of Abeta 1-42.

BACE1 = molecular target: T1, BACE1 (Homo sapiens, UniProt P56817); test: BACE1 biochemical FRET based assay; settings: Method 1: recombinant BACE1 1 μg/ml, 120 min at room temperature, pH 5.0; read-out: Biochemical FRET based assay pIC50 (converted)
T1 construct: recombinant BACE1 protein in a final concentration of 1 μg/ml
T1 sequence (P56817 46-501): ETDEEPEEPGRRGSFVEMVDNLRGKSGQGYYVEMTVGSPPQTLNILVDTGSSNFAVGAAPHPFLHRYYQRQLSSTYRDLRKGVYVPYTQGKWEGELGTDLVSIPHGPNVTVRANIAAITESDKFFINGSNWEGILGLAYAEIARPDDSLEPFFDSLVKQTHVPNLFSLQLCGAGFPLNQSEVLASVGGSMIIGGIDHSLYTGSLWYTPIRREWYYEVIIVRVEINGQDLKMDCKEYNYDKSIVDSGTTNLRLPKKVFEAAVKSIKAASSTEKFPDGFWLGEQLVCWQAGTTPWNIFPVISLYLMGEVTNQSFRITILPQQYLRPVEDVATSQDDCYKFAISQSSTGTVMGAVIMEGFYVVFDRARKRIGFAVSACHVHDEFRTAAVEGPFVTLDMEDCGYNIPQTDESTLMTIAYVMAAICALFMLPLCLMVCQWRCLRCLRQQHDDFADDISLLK
In short: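 Recombinant BACE1 (1 μg/ml) incubated 120 min at room temperature with 10 μm Mca/Dnp-quenched 13-mer APP Swedish-mutant peptide in 40 mM citrate pH 5.0, 0.04% PEG, 4% DMSO. Fluorescence (ex 320/em 405 nm) change between T0 and T120 gives activity; IC50 from least-squares curve fit of % control versus concentration.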

BACE2 = molecular target: T2, BACE2 (Homo sapiens, UniProt Q9Y5Z0); test: BACE2 biochemical FRET based assay; settings: recombinant BACE2, 450 minutes at room temperature, pH 5.0; read-out: Biochemical FRET based assay pIC50 (converted)
T2 construct: recombinant BACE2 protein in a final concentration of 0.4 μg/ml
T2 sequence (Q9Y5Z0 63-518): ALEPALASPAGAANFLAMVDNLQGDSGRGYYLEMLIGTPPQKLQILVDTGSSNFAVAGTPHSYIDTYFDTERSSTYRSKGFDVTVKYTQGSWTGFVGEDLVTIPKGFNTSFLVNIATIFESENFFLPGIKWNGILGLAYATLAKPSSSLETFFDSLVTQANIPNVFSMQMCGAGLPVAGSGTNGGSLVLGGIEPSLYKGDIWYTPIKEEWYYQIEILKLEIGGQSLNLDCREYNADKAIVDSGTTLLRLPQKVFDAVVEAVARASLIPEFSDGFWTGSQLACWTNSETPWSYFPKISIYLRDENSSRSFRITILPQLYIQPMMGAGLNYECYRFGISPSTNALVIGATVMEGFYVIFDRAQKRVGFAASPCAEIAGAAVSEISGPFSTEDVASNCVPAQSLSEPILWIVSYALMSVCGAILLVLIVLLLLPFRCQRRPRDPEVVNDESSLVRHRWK
In short: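 Recombinant BACE2 (0.4 μg/ml) incubated 450 min at room temperature with 10 μM Mca/Dnp Swedish-APP FRET substrate in 50 mM citrate pH 5.0, 0.05% PEG, no DMSO. Fluorescence (ex 320/em 405 nm) difference T450 minus T0; IC50 from least-squares fit of % control versus concentration.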

[3] = test system: Abeta 1-42 in cerebrospinal fluid (CSF); test: Pharmacology in the beagle dog: beta-amyloid profile in CSF after a single dose; type: in vivo; settings: beagle dog CSF, single dose 0.63 mg/kg
Protocol: Pharmacology in the Beagle Dog
as §1
CSF was taken in conscious animals directly from the lateral ventricle via a cannula which was screwed in the skull and covered with subcutaneous tissue and skin, before and at 4, 8, 25 and 49 hours after dosing. Eight hours after dosing the animals got access to their regular meal for 30 minutes. Blood was taken for PK follow up (0.5, 1, 2, 4, 8, 25 and 49 hours) and serum samples for biochemistry were taken before and at 8 and 25 h after dosing. The CSF samples were used for measurement of Abeta 1-42.

[4] = test system: Abeta 1-42 produced and secreted into the medium of human neuroblastoma SKNBE2 cells; test: Cellular αLisa assay in SKNBE2 cells; type: cell-based; settings: Homo sapiens, SKNBE2, 18 h, human neuroblastoma SKNBE2 cells expressing hAPP695, 18 hours incubation, read-out: Cellular αLisa assay in SKNBE2 cells Abeta 42 pIC50 (converted)
In short: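 Human neuroblastoma SKNBE2 cells expressing wild-type hAPP695 were exposed to compound for 18 hours. Secreted Abeta 1-42 in medium was quantified by sandwich αLisa (AbN/25 and cAb42/26 beads; 1 h, excitation 650 nm, emission 615 nm). IC50 came from a least-squares curve fit of % Controlmin against concentration.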

| IC50 (BACE1) | IC50 (BACE2) | IC50 [4] | Compound | liver abnormalities (patients affected) [1] | Observations [2] | % Mean decrease in Abeta 1-42 at 8 h post dosing compared to own baseline ([3]; 8 h) | % Mean decrease in Abeta 1-42 at 25 h post dosing compared to own baseline ([3]; 25 h) | % Mean decrease in Abeta 1-42 at 49 h post dosing compared to own baseline ([3]; 49 h) |
| --- | --- | --- | --- | --- | --- | --- | --- | --- |
|  |  |  | NC1=N[C@@]2(c3cc(NC(=O)c4ccc(F)cn4)ccc3F)COC[C@H]2CS1 [LY2886721] | four out of 45 |  |  |  |  |
| 2.24 nM | 81.3 nM | 6.92 nM | CC(F)(F)[C@H]1OC[C@]2(c3cc(NC(=O)c4cnc(OCF)cn4)ccc3F)N=C(N)[C@](C)(C#N)C[C@H]12 [compound 14] |  | emesis | 32% | NR (NR means % decrease < 20) | NR (NR means % decrease < 20) |
